Test systems include KM12; HOP-62; HOP-92; TK-10; K562; NCI-H460; SF-268; COLO 205; HCT-15; UACC-257; A498; CCRF-CEM; NCI-H23; A549; UACC-62; IGROV-1.
Holding throughout (test): NCI anticancer screen, dose series, 48 h

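Results reflect a 48-hour exposure of cells in 96-well plates to compound at five concentrations. The concentration for 50% growth inhibition is given as GI50.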 The source made the active and inactive calls. No stated cut-off is given here; in the data, active = GI50 up to about 1.1 µM and inactive = higher.

`Cc1cc(NCCCCCCCCNc2cc(C)nc3cc(N(C)C)ccc23)c2ccc(N(C)C)cc2n1`: the GI50 is 2.82 µM (inactive) in the assay on KM12; 12.2 µM (inactive) with HOP-62; 2.58 µM (inactive) with HOP-92; > 10 µM (inactive) in the assay on TK-10; 0.881 µM (active) with K562; 3.01 µM (inactive) with NCI-H460. Also, the GI50 was 3.48 µM (inactive) with SF-268; 1.9 µM (inactive) with COLO 205; 34.8 µM with HCT-15; 3.94 µM (inactive) in the assay on UACC-257; 17.5 µM (inactive) in the assay with A498; 5.01 µM (inactive) in the assay with CCRF-CEM. Further, the values for the GI50 in the assay with NCI-H23 and in the assay with A549 were 1.43 µM (inactive) and 3.31 µM (inactive), respectively.
Consider `NNC(=O)C(=O)N/N=C1\CCC(=O)CC1C(=O)CCC(=O)Nc1ccc(Cl)cc1` (centres undefined), for which the GI50 with KM12 is 64 µM (inactive); in the assay with TK-10 it was > 100 µM (inactive); in the assay on K562, > 100 µM (inactive); with NCI-H460, > 100 µM (inactive); with UACC-62, > 100 µM (inactive); with SF-268 it was > 100 µM (inactive). Further, the GI50 in the assay with IGROV-1 was > 100 µM (inactive); in the assay on COLO 205, > 100 µM (inactive); in the assay with HCT-15, 94.8 µM; in the assay with UACC-257, > 100 µM (inactive); with A498, > 100 µM (inactive); in the assay on CCRF-CEM, > 100 µM (inactive). The GI50 in the assay on NCI-H23 and with A549 was > 100 µM (inactive) each time.
In the case of `S=C(Nc1ccccc1)Nc1[nH]c(=S)sc1-c1nc2ccccc2[nH]1`, the GI50 in the assay with KM12 was > 100 µM (inactive); in the assay with HOP-62 it was 23.1 µM (inactive); in the assay with TK-10 it was 40.1 µM (inactive); in the assay with K562, > 100 µM (inactive); in the assay with UACC-62 it was 57.9 µM (inactive); in the assay on SF-268 it was 48.9 µM (inactive). In addition, the GI50 was 94.2 µM (inactive) in the assay with IGROV-1; > 100 µM (inactive) in the assay with COLO 205; 98.2 µM in the assay with HCT-15; > 100 µM (inactive) in the assay with UACC-257; > 100 µM (inactive) in the assay on A498; > 100 µM (inactive) in the assay with CCRF-CEM. Further, the figures for the GI50 in the assay on NCI-H23 and in the assay with A549 were > 100 µM (inactive) and 65.6 µM (inactive), respectively.
On to `N#Cc1nc(-c2cccnc2)oc1N`, for which the GI50 in the assay on KM12, with HOP-62, with HOP-92, in the assay on TK-10, in the assay with K562 and in the assay on NCI-H460 was > 100 µM (inactive) each time. Also, the GI50 in the assay on UACC-62 is > 100 µM (inactive); with SF-268, > 100 µM (inactive); in the assay with IGROV-1, > 100 µM (inactive); in the assay with COLO 205, > 100 µM (inactive); in the assay on HCT-15 it was more than 100 µM; in the assay on UACC-257 it was > 100 µM (inactive). Moreover, the GI50 in the assay with A498 and in the assay with CCRF-CEM was > 100 µM (inactive) in each case.
As for `O=C(c1ccncc1)n1nc(-c2ccccc2)c(/N=N/c2ccccc2[N+](=O)[O-])c1-c1ccccc1`, the GI50 in the assay on KM12 is 19.3 µM (inactive); in the assay on HOP-62 it was 38.3 µM (inactive); in the assay on HOP-92, 35.6 µM (inactive); in the assay on TK-10, 67.9 µM (inactive); in the assay on K562, 36.3 µM (inactive); in the assay with UACC-62, 75.3 µM (inactive). In addition, the GI50 is 82 µM (inactive) in the assay on SF-268; 73.8 µM (inactive) with IGROV-1; > 100 µM (inactive) with COLO 205; 40.8 µM (inactive) in the assay on UACC-257; 70.3 µM (inactive) in the assay with A498; 59.3 µM (inactive) in the assay with CCRF-CEM. Moreover, the GI50 in the assay with NCI-H23 was 30 µM (inactive); in the assay with A549, 39.4 µM (inactive).
With `COc1cc(C(O)C(=O)c2cnc3cc([N+](=O)[O-])ccc3n2)ccc1O` (centres undefined), the GI50 in the assay on KM12 is > 100 µM (inactive); in the assay on HOP-62, 85.5 µM (inactive); with TK-10, > 100 µM (inactive); in the assay with K562 it was > 100 µM (inactive); with NCI-H460, > 100 µM (inactive); in the assay on UACC-62, 62.1 µM (inactive). For the same compound, the GI50 with IGROV-1 was > 100 µM (inactive); in the assay on COLO 205, > 100 µM (inactive); with HCT-15 it was more than 100 µM; with UACC-257, > 100 µM (inactive); with A498 it was > 100 µM (inactive); in the assay on CCRF-CEM, > 100 µM (inactive). Besides, the GI50 with A549 was > 100 µM (inactive).
With `O=C(Cc1nc2c3c(ccc2nc1O)C(=O)c1ccccc1C3=O)C(=O)Nc1ccccc1[N+](=O)[O-]`, the GI50 is 18.7 µM (inactive) with KM12; 18.3 µM (inactive) in the assay with HOP-62; 20.7 µM (inactive) in the assay with HOP-92; 24.2 µM (inactive) in the assay on TK-10; 12.6 µM (inactive) in the assay with K562; 31.9 µM (inactive) in the assay with NCI-H460. Besides, the GI50 in the assay with UACC-62 is 25.6 µM (inactive); in the assay on SF-268, 14.4 µM (inactive); in the assay on IGROV-1, 29.6 µM (inactive); in the assay with COLO 205, 15.2 µM (inactive); with HCT-15 it was more than 10 µM; in the assay on UACC-257, 17.7 µM (inactive). Besides, the GI50 is 2.51 µM (inactive) in the assay with CCRF-CEM, 18.5 µM (inactive) in the assay on NCI-H23 and 49.4 µM (inactive) in the assay with A549.
As to `C/C(CC(=O)Nc1cc(C)ccc1C)=N\NC(=O)c1ccncc1`, the GI50 in the assay with KM12 is > 100 µM (inactive); in the assay with HOP-62, > 100 µM (inactive); with HOP-92 it was 79.6 µM (inactive); in the assay on TK-10 it was > 100 µM (inactive); in the assay on K562 it was > 100 µM (inactive); in the assay with NCI-H460 it was > 100 µM (inactive). The GI50 in the assay with UACC-62, with SF-268, in the assay with IGROV-1, in the assay with COLO 205, in the assay with UACC-257 and in the assay with CCRF-CEM was > 100 µM (inactive) in each case. Further, the GI50 in the assay on NCI-H23 and in the assay on A549 was > 100 µM (inactive) throughout.
For `COc1ccc(-c2cc(O)c3ccc(F)cc3n2)cc1`, the GI50 is 77.4 µM (inactive) in the assay with KM12; > 100 µM (inactive) in the assay with HOP-62; > 100 µM (inactive) in the assay with HOP-92; > 100 µM (inactive) in the assay on TK-10; > 100 µM (inactive) with K562; > 100 µM (inactive) with NCI-H460. For the same compound, the GI50 was > 100 µM (inactive) with UACC-62; 23.5 µM (inactive) with SF-268; > 100 µM (inactive) with IGROV-1; > 100 µM (inactive) in the assay with COLO 205; > 100 µM (inactive) in the assay with UACC-257; > 100 µM (inactive) in the assay on CCRF-CEM. Further, the GI50 with NCI-H23 and in the assay with A549 was > 100 µM (inactive) each time.
For `C=C1C2CC(OC(C)=O)C3(C)C(c4ccoc4)OC(=O)[C@@H](O)[C@]13OC1C[C@H](OC(C)=O)C(C)(C)[C@H](C(O)C(=O)OC)[C@]12C` (some centres undefined), the GI50 in the assay with KM12 was > 100 µM (inactive); with HOP-92 it was 4.17 µM (inactive); in the assay on TK-10, > 100 µM (inactive); with K562 it was > 100 µM (inactive); in the assay with NCI-H460, > 100 µM (inactive); in the assay on UACC-62, > 100 µM (inactive). The GI50 in the assay on IGROV-1 was > 100 µM (inactive); in the assay on COLO 205, > 100 µM (inactive); in the assay on HCT-15, more than 100 µM; in the assay on A498 it was > 100 µM (inactive); in the assay with CCRF-CEM, > 100 µM (inactive); with NCI-H23, > 100 µM (inactive). Besides, the GI50 with A549 is > 100 µM (inactive).

The values above are taken from ChEMBL document CHEMBL1201862, “PubChem BioAssay data set” (2004).
